Structures can show the parent of a compound that is named as a salt. Where only a bound is given, the exact number is not on record here.

In the experiment the target is PAD4 enzyme (Homo sapiens (Human), UniProt Q9UM07). Put plainly: Ammonia Release Biochemical Assay (citrullination detected via ammonia release). The settings on record: PAD4 120 nM, substrate BAEE, 60-min preincubation, read-out: NH3 release. The method, then: Ammonia Release Biochemical Assay
Chain of PAD4 enzyme (Q9UM07 whole entry): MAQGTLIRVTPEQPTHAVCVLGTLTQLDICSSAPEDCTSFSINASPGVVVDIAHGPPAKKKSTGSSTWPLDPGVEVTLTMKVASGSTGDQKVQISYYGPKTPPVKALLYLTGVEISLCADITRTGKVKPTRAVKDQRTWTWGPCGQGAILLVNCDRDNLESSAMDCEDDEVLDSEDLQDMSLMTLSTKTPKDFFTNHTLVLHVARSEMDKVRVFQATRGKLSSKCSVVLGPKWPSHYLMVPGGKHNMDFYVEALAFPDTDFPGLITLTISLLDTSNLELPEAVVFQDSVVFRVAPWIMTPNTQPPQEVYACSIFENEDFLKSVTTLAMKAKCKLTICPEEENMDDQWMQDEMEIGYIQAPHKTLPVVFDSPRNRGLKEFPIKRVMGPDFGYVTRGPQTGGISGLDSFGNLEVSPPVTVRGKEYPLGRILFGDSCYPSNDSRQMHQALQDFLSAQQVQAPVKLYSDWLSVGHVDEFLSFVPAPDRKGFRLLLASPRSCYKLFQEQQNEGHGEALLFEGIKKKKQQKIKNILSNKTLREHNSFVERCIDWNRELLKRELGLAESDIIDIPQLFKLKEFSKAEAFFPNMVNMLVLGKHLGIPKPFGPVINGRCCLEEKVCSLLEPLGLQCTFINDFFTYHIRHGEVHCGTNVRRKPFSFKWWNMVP
Citrullination assay was detected via ammonia release. PAD4 enzyme was diluted to 120 nM in assay buffer (100 mM HEPES, 50 mM NaCl, 2 mM DDT, 0.6 mg/mL BSA, pH 7.4) added to wells containing various concentration of compound or DMSO vehicle (1% final) in black 384 well plate. Following a 60-min preincubation at room temperature, the reaction was initiated by the addition of substrate (1.5 mM BAEE in 200 mM HEPES, 50 mM NaCl, 350 uM CaCl2, 2 mM, pH 7.4). The reaction was stopped after 60 min by addition of stop/detection buffer containing 50 mM EDTA, 2.6 mM of o-phthaladehyde and 2.6 mM DTT. Assay was incubated at room temperature for 90 min before measuring fluorescence's (λex 405/λem 460 nm) on Tecan reader. IC50 was calculated using XL-fit software model 205. (Ref: Nat Chem Biol. 2015 March; 11(3):189-91).
On to `N[C@@H]1CCCN(C(=O)c2cc3c4c(c2)nc(-c2cc5ccccc5n2Cc2ncccn2)n4CCO3)C1` [Example 27, (R)-(3-aminopiperidin-1-yl)(2-(1-(pyrimidin-2-ylmethyl)-1H-indol-2-yl)-3,4-dihydro-5-oxa-1,2a-diazaacenaphthylen-7-yl)methanone], for which the IC50 was at most 1000 nM.

Take `COc1ccc2cc(-c3nc4cc(C(=O)N5CCC[C@@H](N)C5)cc5c4n3CCN5C)n(CC3CC3)c2c1` [Example 74, (R)-(3-aminopiperidin-1-yl)(2-(1-(cyclopropylmethyl)-6-methoxy-1H-indol-2-yl)-6-methyl-5,6-dihydro-4H-imidazo[1,5,4-de]quinoxalin-8-yl)methanone]: the IC50 is at most 1000 nM.

For the compound `N[C@@H]1CCCN(C(=S)c2cc3c4c(c2)nc(-c2cc5ccccc5n2CC2CC2)n4CCN3)C1` [Example 86, (R)-(3-aminopiperidin-1-yl)(2-(1-(cyclopropylmethyl)-1H-indol-2-yl)-5,6-dihydro-4H-imidazo [1,5,4-de]quinoxalin-8-yl)methanethione], the IC50 is at most 1000 nM.

Turning to `N[C@@H]1CCN(C(=O)c2cc3c4c(c2)nc(-c2cc5ccccc5n2CC2CC2)n4CCO3)C1` [Example 2, (R)-(3-aminopyrrolidin-1-yl)(2-(1-(cyclopropylmethyl)-1H-indol-2-yl)-3,4-dihydro-5-oxa-1,2a-diazaacenaphthylen-7-yl)methanone], the IC50 was 1000 to 10000 nM.

For the compound `N[C@@H]1CCCN(C(=O)c2cc3c4c(c2)nc(-c2cc5cccc(Cl)c5n2CC2CC2)n4CCO3)C1` [Example 57, (R)-(3-aminopiperidin-1-yl)(2-(7-chloro-1-(cyclopropylmethyl)-1H-indol-2-yl)-3,4-dihydro-5-oxa-1,2a-diazaacenaphthylen-7-yl)methanone], the IC50 was at most 1000 nM.

`N[C@@H]1CCCN(C(=O)c2cc3c4c(c2)nc(-c2cc5ccccc5n2Cc2ncccc2F)n4CCO3)C1` [Example 26, (R)-(3-aminopiperidin-1-yl)(2-(1-((3-fluoropyridin-2-yl)methyl)-1H-indol-2-yl)-3,4-dihydro-5-oxa-1,2a-diazaacenaphthylen-7-yl)methanone]: the IC50 is at most 1000 nM.

In the case of `N[C@@H]1CCCN(C(=O)c2cc3c4c(c2)nc(-c2cc5ccc(F)cc5n2Cc2ncccc2F)n4CCO3)C1` [Example 35, (R)-(3-aminopiperidin-1-yl)(2-(6-fluoro-1-((3-fluoropyridin-2-yl)methyl)-1H-indol-2-yl)-3,4-dihydro-5-oxa-1,2a-diazaacenaphthylen-7-yl)methanone], the IC50 is at most 1000 nM.

For `N[C@@H]1CCCN(C(=O)c2cc3c4c(c2)nc(-c2cc5ccccc5n2Cc2ccccn2)n4CCN3)C1` [Example 69, (R)-(3-aminopiperidin-1-yl)(2-(1-(pyridin-2-ylmethyl)-1H-indol-2-yl)-5,6-dihydro-4H-imidazo[1,5,4-de]quinoxalin-8-yl)methanone], the IC50 was at most 1000 nM.

Regarding `N[C@@H]1CCCN(C(=O)c2cc3c4c(c2)nc(-c2cc5ccccc5n2CC(=O)O)n4CCO3)C1` [Example 42, (R)-2-(2-(7-(3-aminopiperidine-1-carbonyl)-3,4-dihydro-5-ox 1,2a-diazaacenaphthylen-2-yl)-1H-indol-1-yl)acetic acid], the IC50 was at least 10000 nM.

As for `N[C@@H]1CCCN(C(=O)c2cc3c4c(c2)nc(-c2cc5ccccc5n2Cc2ccccc2F)n4CCN3)C1` [Example 70, (R)-(3-aminopiperidin-1-yl)(2-(1-(2-fluorobenzyl)-1H-indol-2-yl)-5,6-dihydro-4H-imidazo[1,5,4-de]quinoxalin-8-yl)methanone], the IC50 was at most 1000 nM.

Regarding `CCOCCS(=O)(=O)N1CCn2c(-c3cc4ccccc4n3CC3CC3)nc3cc(C(=O)N4CCC[C@@H](N)C4)cc1c32` [Example 83, (R)-(3-aminopiperidin-1-yl)(2-(1-(cyclopropylmethyl)-1H-indol-2-yl)-6-((2-ethoxyethyl)sulfonyl)-5,6-dihydro-4H-imidazo[1,5,4-de]quinoxalin-8-yl)methanone], the IC50 lay within 1000 to 10000 nM.

On to `COc1ccc2cc(-c3nc4cc(C(=O)N5CCC[C@@H](N)C5)cc5c4n3CCO5)n(Cc3ncccc3F)c2c1` [Example 33, (R)-(3-aminopiperidin-1-yl)(2-(1-((3-fluoropyridin-2-yl)methyl)-6-methoxy-1H-indol-2-yl)-3,4-dihydro-5-oxa-1,2a-diazaacenaphthylen-7-yl)methanone], for which the IC50 was at most 1000 nM.

Consider `N[C@@H]1CCCN(C(=O)c2cc3c4c(c2)nc(-c2cc5cccc(Cl)c5n2CC(F)F)n4CCO3)C1` [Example 56, (R)-(3-aminopiperidin-1-yl)(2-(7-chloro-1-(2,2-difluoroethyl)-1H-indol-2-yl)-3,4-dihydro-5-oxa-1,2a-diazaacenaphthylen-7-yl)methanone], for which the IC50 was at most 1000 nM.

With `COCCn1c(-c2nc3cc(C(=O)N4CCC[C@@H](N)C4)cc4c3n2CCO4)cc2ccc(F)cc21` [Example 52], the IC50 lay within 1000 to 10000 nM.

In the case of `N[C@@H]1CCCN(C(=O)c2cc3c4c(c2)nc(-c2cc5cccc(Cl)c5n2Cc2ncccc2F)n4CCO3)C1` [Example 34, (R)-(3-aminopiperidin-1-yl)(2-(7-chloro-1-((3-fluoropyridin-2-yl)methyl)-1H-indol-2-yl)-3,4-dihydro-5-oxa-1,2a-diazaacenaphthylen-7-yl)methanone], the IC50 is at most 1000 nM.

Consider `COCCn1c(-c2nc3cc(C(=O)N4CCC[C@@H](N)C4)cc4c3n2CCO4)cc2cc(F)ccc21` [Example 48, (R)-(3-aminopiperidin-1-yl)(2-(5-fluoro-1-(2-methoxyethyl)-1H-indol-2-yl)-3,4-dihydro-5-oxa-1,2a-diazaacenaphthylen-7-yl)methanone], for which the IC50 is at most 1000 nM.

Regarding `COCCn1c(-c2nc3cc(C(=O)N4CCC[C@@H](N)C4)cc4c3n2CCO4)cc2ccccc21` [Example 20, (R)-(3-aminopiperidin-1-yl)(2-(1-(2-methoxyethyl)-1H-indol-2-yl)-3,4-dihydro-5-oxa-1,2a-diazaacenaphthylen-7-yl)methanone], the IC50 is at most 1000 nM.

For `N[C@@H]1CCCN(C(=O)c2cc3c4c(c2)nc(-c2cc5ccccc5n2Cc2cccnn2)n4CCO3)C1` [Example 30, (R)-(3-aminopiperidin-1-yl)(2-(1-(pyridazin-3-ylmethyl)-1H-indol-2-yl)-3,4-dihydro-5-oxa-1,2a-diazaacenaphthylen-7-yl)methanone], the IC50 is 1000 to 10000 nM.

In the case of `N[C@@H]1CCCN(C(=O)c2cc3c4c(c2)nc(-c2cc5ccccc5n2CC2CC2)n4CCCO3)C1` [Example 6, (R)-(3-aminopiperidin-1-yl)(1-(1-(cyclopropylmethyl)-1H-indol-2-yl)-8,9-dihydro-7H-6-oxa-2,9a-diazabenzo[cd]azulen-4-yl)methanone], the IC50 is 1000 to 10000 nM.

In the case of `N[C@@H]1CCCN(C(=O)c2cc3c4c(c2)nc(-c2cc5ccc(F)cc5n2Cc2ccc(F)cc2)n4CCO3)C1` [Example 49, (R)-(3-aminopiperidin-1-yl)(2-(6-fluoro-1-(4-fluorobenzyl)-1H-indol-2-yl)-3,4-dihydro-5-oxa-1,2a-diazaacenaphthylen-7-yl)methanone], the IC50 is at most 1000 nM.

In the case of `COc1ccc(Cn2c(-c3nc4cc(C(=O)N5CCC[C@@H](N)C5)cc5c4n3CCO5)cc3ccc(F)cc32)cc1` [Example 50, (R)-(3-aminopiperidin-1-yl)(2-(6-fluoro-1-(4-methoxybenzyl)-1H-indol-2-yl)-3,4-dihydro-5-oxa-1,2a-diazaacenaphthylen-7-yl)methanone], the IC50 is at most 1000 nM.

Regarding `COCCn1c(-c2nc3cc(C(=O)N4CCC[C@@H](N)C4)cc4c3n2CCO4)cc2cccc(Cl)c21` [Example 36, (R)-(3-aminopiperidin-1-yl)(2-(7-chloro-1-(2-methoxyethyl)-1H-indol-2-yl)-3,4-dihydro-5-oxa-1,2a-diazaacenaphthylen-7-yl)methanone], the IC50 is at most 1000 nM.

`COCCn1c(-c2nc3cc(C(=O)N4CCC[C@@H](N)C4)cc4c3n2CCO4)cc2cc(F)c(F)cc21` [Example 54, (R)-(3-aminopiperidin-1-yl)(2-(5,6-difluoro-1-(2-methoxyethyl)-1H-indol-2-yl)-3,4-dihydro-5-oxa-1,2a-diazaacenaphthylen-7-yl)methanone]: the IC50 fell in the range of 1000 to 10000 nM.

As to `N[C@@H]1CCCN(C(=O)c2cc3c4c(c2)nc(-c2cc5ccccc5n2Cc2cncnc2)n4CCO3)C1` [Example 29, (R)-(3-aminopiperidin-1-yl)(2-(1-(pyrimidin-5-ylmethyl)-1H-indol-2-yl)-3,4-dihydro-5-oxa-1,2a-diazaacenaphthylen-7-yl)methanone], the IC50 fell in the range of 1000 to 10000 nM.

As for `COc1ccc2cc(-c3nc4cc(C(=O)N5CCC[C@@H](N)C5)cc5c4n3CCO5)n(CC3CC3)c2c1` [Example 23, (R)-(3-aminopiperidin-1-yl)(2-(1-(cyclopropylmethyl)-6-methoxy-1H-indol-2-yl)-3,4-dihydro-5-oxa-1,2a-diazaacenaphthylen-7-yl)methanone], the IC50 was at most 1000 nM.

Consider `N[C@@H]1CCCN(C(=O)c2cc3c4c(c2)nc(-c2cc5ccccc5n2Cc2ccc(CO)cc2)n4CCO3)C1` [Example 37, (R)-(3-aminopiperidin-1-yl)(2-(1-(4-(hydroxymethyl)benzyl)-1H-indol-2-yl)-3,4-dihydro-5-oxa-1,2a-diazaacenaphthylen-7-yl)methanone trifluoroacetic acid salt], for which the IC50 is at most 1000 nM.

As for `N[C@@H]1CCCN(C(=O)c2cc3c4c(c2)nc(-c2cc5ccc(CO)cc5n2CC2CC2)n4CCO3)C1` [Example 61, (R)-(3-aminopiperidin-1-yl)(2-(1-(cyclopropylmethyl)-6-(hydroxymethyl)-1H-indol-2-yl)-3,4-dihydro-5-oxa-1,2a-diazaacenaphthylen-7-yl)methanone], the IC50 was at most 1000 nM.

(Values after patent publication US11833156B2, “Heterocyclic compounds as pad inhibitors” (JUBILANT EPIPAD LLC, priority 2017, dated 2023).)
